From the supplement of paper PMC11451515

System: NOMO1
Test: cell viability relative to DMSO control; higher = less cytotoxic
Conditions: 48 h
In short: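 Library compounds in DMSO were pin-dosed into 1536-well plates (5 μl) holding NOMO1 or SEM (500 cells/well) or P12-Ichikawa (1000 cells/well) leukemia cells, across an 11-point threefold series of 47 μM to 0.79 nM. Each cell line had been adapted for at least four passages in each medium. CellTiter-Glo One luminescence was read after 48 h at 37°C. Viability is the per-plate percentage relative to DMSO wells, with cell-free wells as background.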

[1] = HPLM + 10% dialyzed FBS, 0.000781 µM
[2] = HPLM + 10% dialyzed FBS, 0.00234 µM
[3] = HPLM + 10% dialyzed FBS, 0.00702 µM
[4] = HPLM + 10% dialyzed FBS, 0.0211 µM
[5] = HPLM + 10% dialyzed FBS, 0.0632 µM
[6] = HPLM + 10% dialyzed FBS, 0.19 µM
[7] = HPLM + 10% dialyzed FBS, 0.569 µM
[8] = HPLM + 10% dialyzed FBS, 1.71 µM
[9] = HPLM + 10% dialyzed FBS, 5.12 µM
[10] = HPLM + 10% dialyzed FBS, 15.4 µM
[11] = HPLM + 10% dialyzed FBS, 46.1 µM
[12] = RPMI 5 mM glucose + 10% dialyzed FBS, 0.000781 µM
[13] = RPMI 5 mM glucose + 10% dialyzed FBS, 0.00234 µM
[14] = RPMI 5 mM glucose + 10% dialyzed FBS, 0.00702 µM
[15] = RPMI 5 mM glucose + 10% dialyzed FBS, 0.0211 µM
[16] = RPMI 5 mM glucose + 10% dialyzed FBS, 0.0632 µM
[17] = RPMI 5 mM glucose + 10% dialyzed FBS, 0.19 µM
[18] = RPMI 5 mM glucose + 10% dialyzed FBS, 0.569 µM
[19] = RPMI 5 mM glucose + 10% dialyzed FBS, 1.71 µM
[20] = RPMI 5 mM glucose + 10% dialyzed FBS, 5.12 µM
[21] = RPMI 5 mM glucose + 10% dialyzed FBS, 15.4 µM
[22] = RPMI 5 mM glucose + 10% dialyzed FBS, 46.1 µM
[23] = RPMI 5 mM glucose + 10% FBS, 0.000781 µM
[24] = RPMI 5 mM glucose + 10% FBS, 0.00234 µM
[25] = RPMI 5 mM glucose + 10% FBS, 0.00702 µM
[26] = RPMI 5 mM glucose + 10% FBS, 0.0211 µM
[27] = RPMI 5 mM glucose + 10% FBS, 0.0632 µM
[28] = RPMI 5 mM glucose + 10% FBS, 0.19 µM
[29] = RPMI 5 mM glucose + 10% FBS, 0.569 µM
[30] = RPMI 5 mM glucose + 10% FBS, 1.71 µM
[31] = RPMI 5 mM glucose + 10% FBS, 5.12 µM
[32] = RPMI 5 mM glucose + 10% FBS, 15.4 µM
[33] = RPMI 5 mM glucose + 10% FBS, 46.1 µM

Structure (SMILES): N=C(N)NC(=O)c1nc(Cl)c(N)nc1N
- cell viability [1]: 110%
- cell viability [2]: 114%
- cell viability [3]: 132%
- cell viability [4]: 133%
- cell viability [5]: 134%
- cell viability [6]: 130%
- cell viability [7]: 133%
- cell viability [8]: 54.1%
- cell viability [9]: 35.8%
- cell viability [10]: 35%
- cell viability [11]: 36.9%
- cell viability [12]: 112%
- cell viability [13]: 134%
- cell viability [14]: 123%
- cell viability [15]: 134%
- cell viability [16]: 133%
- cell viability [17]: 129%
- cell viability [18]: 136%
- cell viability [19]: 72.5%
- cell viability [20]: 33.3%
- cell viability [21]: 29.2%
- cell viability [22]: 29.1%

Structure (SMILES): O=C(/C=C/c1c(C(=O)[O-])[nH]c2cc(Cl)cc(Cl)c12)Nc1ccccc1
- cell viability [1]: 112%
- cell viability [2]: 115%
- cell viability [3]: 116%
- cell viability [4]: 116%
- cell viability [5]: 99.9%
- cell viability [6]: 117%
- cell viability [7]: 118%
- cell viability [8]: 110%
- cell viability [9]: 113%
- cell viability [10]: 112%
- cell viability [11]: 108%
- cell viability [23]: 90.5%
- cell viability [24]: 99%
- cell viability [25]: 99.5%
- cell viability [26]: 95.1%
- cell viability [27]: 101%
- cell viability [28]: 116%
- cell viability [29]: 107%
- cell viability [30]: 107%
- cell viability [31]: 107%
- cell viability [32]: 124%
- cell viability [33]: 107%
- cell viability [12]: 110%
- cell viability [13]: 109%
- cell viability [14]: 114%
- cell viability [15]: 126%
- cell viability [16]: 126%
- cell viability [17]: 120%
- cell viability [18]: 115%
- cell viability [19]: 120%
- cell viability [20]: 111%
- cell viability [21]: 127%
- cell viability [22]: 118%

Structure (SMILES): CN1\C(=C(\O)C2=C(C=CS2)[S+]1([O-])=O)C(=O)NC3=CC=CC=N3
- cell viability [1]: 116%
- cell viability [2]: 122%
- cell viability [3]: 123%
- cell viability [4]: 125%
- cell viability [5]: 112%
- cell viability [6]: 112%
- cell viability [7]: 109%
- cell viability [8]: 114%
- cell viability [9]: 95.4%
- cell viability [10]: 100%
- cell viability [11]: 44.6%
- cell viability [23]: 100%
- cell viability [24]: 106%
- cell viability [25]: 113%
- cell viability [26]: 111%
- cell viability [27]: 113%
- cell viability [28]: 114%
- cell viability [29]: 94.4%
- cell viability [30]: 101%
- cell viability [31]: 100%
- cell viability [32]: 93.1%
- cell viability [33]: 29.3%
- cell viability [12]: 113%
- cell viability [13]: 114%
- cell viability [14]: 117%
- cell viability [15]: 116%
- cell viability [16]: 110%
- cell viability [17]: 114%
- cell viability [18]: 97.3%
- cell viability [19]: 107%
- cell viability [20]: 109%
- cell viability [21]: 92.7%
- cell viability [22]: 46.3%

Structure (SMILES): C[N+]1(C)[C@@H]2C[C@@H](OC(=O)[C@H](CO)c3ccccc3)C[C@H]1[C@@H]1O[C@@H]12.[Br-]
- cell viability [1]: 91.9%
- cell viability [2]: 95.1%
- cell viability [3]: 108%
- cell viability [4]: 113%
- cell viability [5]: 105%
- cell viability [6]: 99.4%
- cell viability [7]: 86.5%
- cell viability [8]: 93.5%
- cell viability [9]: 99.5%
- cell viability [10]: 89.2%
- cell viability [11]: 101%
- cell viability [23]: 95.5%
- cell viability [24]: 91.8%
- cell viability [25]: 86.6%
- cell viability [26]: 89.4%
- cell viability [27]: 85%
- cell viability [28]: 88.5%
- cell viability [29]: 86.9%
- cell viability [30]: 90.3%
- cell viability [31]: 90.4%
- cell viability [32]: 86.1%
- cell viability [33]: 86.8%
- cell viability [12]: 83%
- cell viability [13]: 90.5%
- cell viability [14]: 86.9%
- cell viability [15]: 91%
- cell viability [16]: 91.6%
- cell viability [17]: 90.8%
- cell viability [18]: 91.6%
- cell viability [19]: 97.2%
- cell viability [20]: 107%
- cell viability [21]: 89%
- cell viability [22]: 98.7%

Structure (SMILES): Cc1nccn1CC1CCc2c(c3ccccc3n2C)C1=O (configuration not stated)
- cell viability [23]: 115%
- cell viability [24]: 108%
- cell viability [25]: 114%
- cell viability [26]: 122%
- cell viability [27]: 105%
- cell viability [28]: 105%
- cell viability [29]: 111%
- cell viability [30]: 111%
- cell viability [31]: 108%
- cell viability [32]: 112%
- cell viability [33]: 105%
- cell viability [12]: 113%
- cell viability [13]: 116%
- cell viability [14]: 115%
- cell viability [15]: 121%
- cell viability [16]: 118%
- cell viability [17]: 112%
- cell viability [18]: 113%
- cell viability [19]: 111%
- cell viability [20]: 109%
- cell viability [21]: 106%
- cell viability [22]: 104%

Structure (SMILES): CCC[C@H](N[C@@H](C)C(=O)N1[C@H](C(=O)O)C[C@@H]2CCCC[C@@H]21)C(=O)OCC
- cell viability [1]: 115%
- cell viability [2]: 124%
- cell viability [3]: 119%
- cell viability [4]: 119%
- cell viability [5]: 105%
- cell viability [6]: 102%
- cell viability [7]: 115%
- cell viability [8]: 89.4%
- cell viability [9]: 36%
- cell viability [10]: 54.1%
- cell viability [11]: 43.9%
- cell viability [23]: 97.4%
- cell viability [24]: 101%
- cell viability [25]: 115%
- cell viability [26]: 109%
- cell viability [27]: 111%
- cell viability [28]: 106%
- cell viability [29]: 105%
- cell viability [30]: 95.3%
- cell viability [31]: 86.7%
- cell viability [32]: 78.9%
- cell viability [33]: 64.6%
- cell viability [12]: 114%
- cell viability [13]: 110%
- cell viability [14]: 118%
- cell viability [15]: 116%
- cell viability [16]: 108%
- cell viability [17]: 109%
- cell viability [18]: 96.2%
- cell viability [19]: 87.5%
- cell viability [20]: 66.4%
- cell viability [21]: 72.6%
- cell viability [22]: 48.2%

Structure (SMILES): Cn1c(Nc2ccc(C(F)(F)F)cc2)nc2cc(Oc3ccnc(-c4nc(C(F)(F)F)c[nH]4)c3)ccc21
- cell viability [1]: 125%
- cell viability [2]: 125%
- cell viability [3]: 120%
- cell viability [4]: 125%
- cell viability [5]: 144%
- cell viability [6]: 145%
- cell viability [7]: 140%
- cell viability [8]: 129%
- cell viability [9]: 114%
- cell viability [10]: 100%
- cell viability [11]: 45.7%
- cell viability [23]: 124%
- cell viability [24]: 123%
- cell viability [25]: 118%
- cell viability [26]: 134%
- cell viability [27]: 130%
- cell viability [28]: 141%
- cell viability [29]: 124%
- cell viability [30]: 149%
- cell viability [31]: 122%
- cell viability [32]: 119%
- cell viability [33]: 29.5%
- cell viability [12]: 121%
- cell viability [13]: 129%
- cell viability [14]: 121%
- cell viability [15]: 127%
- cell viability [16]: 140%
- cell viability [17]: 130%
- cell viability [18]: 125%
- cell viability [19]: 125%
- cell viability [20]: 104%
- cell viability [21]: 106%
- cell viability [22]: 26.8%

Structure (SMILES): COc1cc2c(Oc3ccc(NC(=O)C4(C(=O)Nc5ccc(F)cc5)CC4)cc3F)ccnc2cc1OCCCN1CCOCC1
- cell viability [1]: 74.7%
- cell viability [2]: 83.2%
- cell viability [3]: 79.3%
- cell viability [4]: 92%
- cell viability [5]: 89.5%
- cell viability [6]: 83.1%
- cell viability [7]: 84.3%
- cell viability [8]: 61%
- cell viability [9]: 63.4%
- cell viability [10]: 28.5%
- cell viability [11]: 4.74%
- cell viability [23]: 80.8%
- cell viability [24]: 86.3%
- cell viability [25]: 91.7%
- cell viability [26]: 94.6%
- cell viability [27]: 85.8%
- cell viability [28]: 85.1%
- cell viability [29]: 86.8%
- cell viability [30]: 72.8%
- cell viability [31]: 41%
- cell viability [32]: 36.9%
- cell viability [33]: 4.62%
- cell viability [12]: 81.2%
- cell viability [13]: 75.3%
- cell viability [14]: 84.8%
- cell viability [15]: 93.8%
- cell viability [16]: 85.6%
- cell viability [17]: 72.1%
- cell viability [18]: 80.9%
- cell viability [19]: 46.5%
- cell viability [20]: 43.3%
- cell viability [21]: 29.6%
- cell viability [22]: 5.96%
